As a reminder, the IC20 is the point of the concentration-response curve where the effect stands at 20%.

Results on 6 molecules are retold here after patent US20240360126A1, “PYRAZOLO[3,4-B]PYRIDINE COMPOUNDS FOR THE TREATMENT OF AUTOIMMUNE DISEASE” (Hoffmann-La Roche Inc., priority 2021, published 2024).

Data set [1] addresses T1, hERG K+ channel (Homo sapiens, UniProt Q12809).
T1 construct: expressed in transfected cells; host or cells: CHO (Chinese hamster ovary)
The data set is described as follows: hERG channel inhibition assay (patch-clamp, CHO-hERG cells). Type of data set: cell-based. The settings on record: for IC50 / IC20: CHO-hERG cells, whole-cell patch-clamp; for IC20: human, CHO cells stably expressing hERG; for hERG IC20/TLR7 IC50 / hERG IC20/TLR8 IC50 / hERG IC20/TLR9 IC50: safety ratio. The method, then: The hERG K^+ channels were cloned in humans and stably expressed in a CHO (Chinese hamster ovary) cell line. CHOhERG cells were used for patch-clamp (voltage-clamp, whole-cell) experiments. Cells were stimulated by a voltage pattern to activate hERG channels and conduct IKhERG Currents (rapid delayed outward rectifier potassium current of the hERG channel). After the cells were stabilized for a few minutes, the amplitude and kinetics of IKhERG were recorded at a stimulation frequency of 0.1 Hz (6 bpm). Thereafter, the test compound was added to the preparation at increasing concentrations. For each concentration, an attempt was made to reach a steady-state effect, usually, this was achieved within 3-10 min at which time the next highest concentration was applied. The amplitude and kinetics of IKhERG are recorded in each concentration of the drug which were compared to the control values (taken as 100%). (references: Redfe W S, Carlsson L, Davis A S, Lynch W G, MacKenzie I, Palethorpe S, Siegl P K, Strang I, Sullivan A T, Wallis R, Camm A J, Hammond T G. 2003; Relationships between preclinical cardiac electrophysiology, clinical QT interval prolongation and torsade de pointes for a broad range of drugs: evidence for a provisional safety margin in drug development. Cardiovasc. Res. 58:32-45, Sanguinetti M C, Tristani-Firouzi M. 2006; hERG potassium channels and cardiac arrhythmia. Nature 440:463-469, Webster R, Leishman D, Walker D. 2002; Towards a drug concentration effect relationship for QT prolongation and torsades de pointes. Curr. Opin. Drug Discov. Devel. 5:116-26).
On the technique in general: The hERG channel carries a current that helps repolarise heart muscle cells.

Data set [2] concerns the target T2, human TLR7 (Homo sapiens, UniProt Q9NYK1).
T2 construct: host or cells: HEK293 (HEK-Blue hTLR7)
T2 sequence (Q9NYK1 27-1049): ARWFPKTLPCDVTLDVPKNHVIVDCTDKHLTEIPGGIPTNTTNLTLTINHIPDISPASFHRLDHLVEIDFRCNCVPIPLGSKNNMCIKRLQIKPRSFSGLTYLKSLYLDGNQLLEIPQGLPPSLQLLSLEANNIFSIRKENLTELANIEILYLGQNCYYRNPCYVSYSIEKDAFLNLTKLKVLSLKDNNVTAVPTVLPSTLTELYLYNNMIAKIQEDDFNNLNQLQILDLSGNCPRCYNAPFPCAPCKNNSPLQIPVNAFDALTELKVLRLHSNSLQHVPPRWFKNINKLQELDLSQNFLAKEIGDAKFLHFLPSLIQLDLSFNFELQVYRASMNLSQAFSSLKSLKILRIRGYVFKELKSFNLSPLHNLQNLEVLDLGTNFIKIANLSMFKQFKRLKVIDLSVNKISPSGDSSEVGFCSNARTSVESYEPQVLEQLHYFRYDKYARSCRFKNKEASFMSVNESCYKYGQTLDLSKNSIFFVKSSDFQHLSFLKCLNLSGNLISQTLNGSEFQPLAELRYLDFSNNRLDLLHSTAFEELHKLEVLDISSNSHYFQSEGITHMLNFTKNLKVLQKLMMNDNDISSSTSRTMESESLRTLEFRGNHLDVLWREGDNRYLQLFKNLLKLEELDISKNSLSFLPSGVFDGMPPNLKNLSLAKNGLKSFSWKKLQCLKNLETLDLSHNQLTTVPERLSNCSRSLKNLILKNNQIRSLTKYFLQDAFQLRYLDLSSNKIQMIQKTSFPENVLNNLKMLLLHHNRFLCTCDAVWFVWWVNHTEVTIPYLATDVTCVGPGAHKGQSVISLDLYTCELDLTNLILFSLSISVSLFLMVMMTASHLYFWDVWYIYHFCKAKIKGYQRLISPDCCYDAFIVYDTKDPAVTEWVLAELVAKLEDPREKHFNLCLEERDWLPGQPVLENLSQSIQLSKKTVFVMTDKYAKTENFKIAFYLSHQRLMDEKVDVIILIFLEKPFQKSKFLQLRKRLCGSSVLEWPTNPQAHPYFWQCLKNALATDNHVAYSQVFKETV
In words: HEK293-Blue-hTLR-7 cells assay. Type of data set: cell-based. The settings on record: HEK293-Blue-hTLR7 cells, R848 stimulation, 20 hrs; read-out: HEK/hTLR7 IC50. The text has this:
A stable HEK293-Blue-hTLR-7 cell line was purchased from InvivoGen (Cat. #: hkb-htlr7, San Diego, California, USA). These cells were originally designed for studying the stimulation of human TLR7 by monitoring the activation of NF-κB. A SEAP (secreted embryonic alkaline phosphatase) reporter gene was placed under the control of the IFN-β minimal promoter fused to five NF-κB and AP-1-binding sites. The SEAP was induced by activating NF-κB and AP-1 via stimulating HEK-Blue hTLR7 cells with TLR7 ligands. Therefore the reporter expression was declined by TLR7 antagonist under the stimulation of a ligand, such as R848 (Resiquimod), for incubation of 20 hrs. The cell culture supernatant SEAP reporter activity was determined using QUANTI-Blue™ kit (Cat. #: rep-qbl, Invivogen, San Diego, Ca, USA) at a wavelength of 640 nm, a detection medium that turns purple or blue in the presence of alkaline phosphatase.
HEK293-Blue-hTLR7 cells were incubated at a density of 250,000-450,000 cells/mL in a volume of 170 μL in a 96-well plate in Dulbecco's Modified Eagle's medium (DMEM) containing 4.5 g/L glucose, 50 U/mL penicillin, […] streptomycin, […] Normocin, […] L-glutamine, 10% […] heat-inactivated fetal bovine serum with addition of 20 μL test compound in a serial dilution in the presence of final DMSO at 1% and 10 μL of 20 μM R848 in above DMEM, perform incubation under 37° C. in a CO2 incubator for 20 hrs. Then 20 μL of the supernatant from each well was incubated with 180 μL Quanti-blue substrate solution at 37° C. for 2 hrs and the absorbance was read at […] using a spectrophotometer. The signaling pathway that TLR7 activation leads to downstream NF-κB activation has been widely accepted, and therefore similar reporter assay was modified for evaluating TLR7 antagonist.

Molecules are shown by their SMILES.

T1 sequence (Q12809 whole entry): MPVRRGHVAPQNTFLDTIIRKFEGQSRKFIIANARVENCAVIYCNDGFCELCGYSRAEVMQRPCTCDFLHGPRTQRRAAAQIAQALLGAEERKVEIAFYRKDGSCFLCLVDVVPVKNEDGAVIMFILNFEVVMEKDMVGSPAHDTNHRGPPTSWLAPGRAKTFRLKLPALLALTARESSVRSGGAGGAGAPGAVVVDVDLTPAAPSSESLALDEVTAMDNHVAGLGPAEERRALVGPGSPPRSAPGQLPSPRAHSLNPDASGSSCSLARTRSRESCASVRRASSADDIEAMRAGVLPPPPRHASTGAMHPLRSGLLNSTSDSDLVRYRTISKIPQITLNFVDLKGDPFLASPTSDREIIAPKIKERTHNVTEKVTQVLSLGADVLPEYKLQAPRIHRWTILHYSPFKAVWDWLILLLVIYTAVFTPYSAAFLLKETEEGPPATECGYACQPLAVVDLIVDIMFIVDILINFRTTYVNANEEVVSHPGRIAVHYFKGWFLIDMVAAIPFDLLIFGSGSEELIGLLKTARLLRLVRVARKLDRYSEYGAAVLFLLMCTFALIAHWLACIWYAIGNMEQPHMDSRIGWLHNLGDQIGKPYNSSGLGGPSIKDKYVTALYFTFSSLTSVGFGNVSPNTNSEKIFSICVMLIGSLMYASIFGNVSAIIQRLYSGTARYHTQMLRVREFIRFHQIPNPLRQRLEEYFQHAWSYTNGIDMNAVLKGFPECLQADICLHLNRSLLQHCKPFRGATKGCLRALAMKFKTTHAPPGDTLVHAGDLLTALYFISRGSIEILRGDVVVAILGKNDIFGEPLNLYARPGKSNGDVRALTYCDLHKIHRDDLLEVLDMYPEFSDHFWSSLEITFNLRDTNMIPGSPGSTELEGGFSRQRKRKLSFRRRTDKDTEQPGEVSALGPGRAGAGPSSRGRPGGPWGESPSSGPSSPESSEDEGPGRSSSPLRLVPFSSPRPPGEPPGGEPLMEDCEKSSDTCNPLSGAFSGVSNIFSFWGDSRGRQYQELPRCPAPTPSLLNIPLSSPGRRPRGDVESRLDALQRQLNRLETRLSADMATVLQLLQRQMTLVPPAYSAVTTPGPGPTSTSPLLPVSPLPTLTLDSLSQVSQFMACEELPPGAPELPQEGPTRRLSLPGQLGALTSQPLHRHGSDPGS

`Cc1cc(N2CC[C@H](c3ccc(N4CCNCC4)cn3)[C@@H](C)C2)c2cnn(C)c2n1` [Example 35, 1,6-dimethyl-4-[(3R,4S)-3-methyl-4-(5-piperazin-1-yl-2-pyridyl)-1-piperidyl]pyrazolo[3,4-b]pyridine]: in data set [1], the IC50 was more than 10 µM, the IC20 was found to be 4.4 µM, the “hERG IC20/TLR7 IC50” value is reported as 733.3 and the “hERG IC20/TLR8 IC50” value was found to be 488.9. Further, in data set [1], the “hERG IC20/TLR9 IC50” value turned out to be 27.8. In data set [2], the IC50 turned out to be 0.006 µM.
Turning to `CO[C@@H]1CN(c2ccc([C@H]3CCN(c4cc(C)nc5c4cnn5C)C[C@@H]3C)nc2)C[C@H]1N` [Example 36, (3R,4R)-1-[6-[(3R,4S)-1-(1,6-dimethylpyrazolo[3,4-b]pyridin-4-yl)-3-methyl-4-piperidyl]-3-pyridyl]-4-methoxy-pyrrolidin-3-amine], in data set [1], the IC50 is more than 20 µM, the IC20 is more than 10 µM, the “hERG IC20/TLR7 IC50” value is listed as more than 555.6 and the “hERG IC20/TLR8 IC50” value was more than 476.2. Further, the “hERG IC20/TLR9 IC50” value in data set [1] is more than 58.8. Moreover, the IC50 in data set [2] worked out at 0.018 µM.
On to `COC[C@H]1CN(c2ccc([C@H]3CCN(c4cc(C)nc5c4cnn5C)C[C@@H]3C)nc2)CCN1` [Example 37, 4-[(3R,4S)-4-[5-[(3R)-3-(methoxymethyl)piperazin-1-yl]-2-pyridyl]-3-methyl-1-piperidyl]-1,6-dimethyl-pyrazolo[3,4-b]pyridine], for which, in data set [1], the IC50 is more than 20 µM, the IC20 was more than 10 µM, the “hERG IC20/TLR7 IC50” value is more than 1111.1 and the “hERG IC20/TLR8 IC50” value is more than 769.2. In addition, the “hERG IC20/TLR9 IC50” value in data set [1] was more than 30.1. In data set [2], the IC50 turned out to be 0.009 µM.
In the case of `Cc1cc(N2CC[C@H](c3ccc(N4CC5(CNCCO5)C4)cn3)[C@@H](C)C2)c2cnn(C)c2n1` [Example 38, 2-[6-[(3R,4S)-1-(1,6-dimethylpyrazolo[3,4-b]pyridin-4-yl)-3-methyl-4-piperidyl]-3-pyridyl]-5-oxa-2,8-diazaspiro[3.5]nonane], in data set [1], the IC50 was more than 20 µM, the concentration for an effect of 20% (IC20) is 5.2 µM, the “hERG IC20/TLR7 IC50” value was 400.0 and the “hERG IC20/TLR8 IC50” value came out at 472.7. Further, the “hERG IC20/TLR9 IC50” value in data set [1] came to 27.1. Further, in data set [2], the IC50 came to 0.013 µM.
In the case of `Cc1cc(N2CC[C@H](c3ccc(N4CCOC[C@@H](N)C4)cn3)[C@@H](C)C2)c2cnn(C)c2n1` [Example 40, (6S)-4-[6-[(3R,4S)-1-(1,6-dimethylpyrazolo[3,4-b]pyridin-4-yl)-3-methyl-4-piperidyl]-3-pyridyl]-1,4-oxazepan-6-amine], in data set [1], the IC50 is more than 20 µM, the IC20 was found to be 5.9 µM, the “hERG IC20/TLR7 IC50” value came to 655.6 and the “hERG IC20/TLR8 IC50” value is 842.9. Moreover, in data set [1], the “hERG IC20/TLR9 IC50” value was determined as 34.1. Also, the IC50 in data set [2] amounted to 0.009 µM.
For the molecule `Cc1cc(N2CC[C@H](c3ccc(N4CC(C)(N)C4)cn3)[C@@H](C)C2)c2cnn(C)c2n1` [Example 43, 1-[6-[(3R,4S)-1-(1,6-dimethylpyrazolo[3,4-b]pyridin-4-yl)-3-methyl-4-piperidyl]-3-pyridyl]-3-methyl-azetidin-3-amine], in data set [1], the IC50 was more than 20 µM, the IC20 is more than 10 µM, the “hERG IC20/TLR7 IC50” value is listed as more than 625.0 and the “hERG IC20/TLR8 IC50” value is recorded as more than 1666.7. Further, the “hERG IC20/TLR9 IC50” value in data set [1] is more than 49.3. For the same molecule, in data set [2], the IC50 worked out at 0.016 µM.
